Measurements: paper PMC8041674 (European Journal of Nuclear Medicine and Molecular Imaging, 2020)
Values joined by “and” are separate entries in the source; they are usually repeats but may differ in a detail not shown here. Equal entries are not always repeated. Where two headings read alike, the source gives them in different places. Values belong to the compound of their own block, whether it stands above or below them.

Key:
[1] = Pharmacokinetic parameters of pridopidine in plasma; settings: at steady state, 0 to 12 h after oral administration of pridopidine
sigma-1 receptor (S1R) [2] = molecular target: T1, sigma-1 receptor (S1R) (Homo sapiens, UniProt Q99720); experiment: [^18F] fluspidine distribution volume (S1R availability), one-tissue compartment model; format: in vivo; design: from tissue; host or cells: living human brain of male healthy volunteers and Huntington disease patients (in vivo PET); VND, non-displaceable distribution volume: unit not given here
T1 sequence (Q99720 whole entry): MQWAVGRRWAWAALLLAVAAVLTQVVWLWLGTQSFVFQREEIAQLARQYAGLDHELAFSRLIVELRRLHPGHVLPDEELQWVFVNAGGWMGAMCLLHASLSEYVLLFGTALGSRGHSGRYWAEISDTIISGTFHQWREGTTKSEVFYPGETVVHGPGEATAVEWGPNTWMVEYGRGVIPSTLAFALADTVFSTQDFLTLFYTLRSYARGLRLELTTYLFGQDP
Source text: Application of the linear regression

sigma-1 receptor (S1R) [3] = molecular target: T1, sigma-1 receptor (S1R); experiment: Test-retest [^18F] fluspidine PET substudy; format: in vivo; design: from tissue; host or cells: living human brain of male healthy volunteers and Huntington disease patients (in vivo PET); settings: two HVs, no pridopidine, VT of first and second PET scan
Protocol: The test-retest variability of [18F]Fluspidine binding (VT) was estimated for two HVs (age 27.5±3.5 yrs; body weight 67.0±11.3 kg) from PET data acquired at the same time point of the day within 11 and 14 weeks. No pridopidine was administered before imaging. The test-retest variability was calculated using linear regression of the first and second PET scan. Test-retest analysis was performed to calculate the uncertainty of the RO estimate. As estimated by the slope values of the linear regression, the variability was 0.887 (11.3%; subject #1) and 1.008 (0.8%; subject #2)(Supplementary Fig. S7; Supplementary

plasma proteins = experiment: [^18F] fluspidine binding to plasma proteins (ultracentrifugation); format: in vitro ADME; settings: human, read-out: fraction of free tracer in plasma, not bound to plasma proteins
sigma-1 receptor (S1R) [4] = molecular target: T1, sigma-1 receptor (S1R); settings: for mean RO (S1R): 90 mg pridopidine; for RO (%), sigma-1 receptor occupancy: PET 2 h post dose
Source text: This PET study consists of three PET substudies: the [^18F] fluspidine substudy (HVs, n = 11, HD, n = 3), the [^18F] fallypride substudy (HVs, n = 4), and the test-retest [^18F] fluspidine substudy (HVs, n = 2). All subjects were assigned to only one PET substudy. Subjects in the [^18F] fluspidine or [^18F] fallypride substudies were investigated twice within 4 weeks at the same time point of the day.
The doses were not established a priori but were based on the receptor occupancy results from previous cohort subjects. […] Because we observed near to complete S1R occupancy with 90 mg, we reduced the next dose to approximately one fourth. […] The total distribution volume VT of [^18F] fluspidine in the brain was computed from the corresponding TACs and the metabolite-corrected arterial input function using a one-tissue compartment model (1TCM).
The receptor occupancy (RO) is defined as the drug treatment-induced reduction of the receptor density. The values of RO are between 0 (no receptor occupancy) and 1 (100% receptor occupancy). […] Here, it is assumed that the non-displaceable distribution volume VND and the receptor occupancy RO have the same value in all brain regions. Application of the linear regression
1 VTPET1−VTPET2=ROVTPET1−VND yielded VND and RO. From the Lassen plot follows
2 RO=1−VTPET2−VND/VTPET1−VND

[5] = test system: Huntington disease patients; settings: HD patients, 45 mg bid, week 52, PRIDE-HD; cited from earlier work
S1R = settings: behaviorally effective doses, [^11C]SA4503 PET; cited from earlier work
sigma-1 receptor (S1R) [6] = molecular target: T1, sigma-1 receptor (S1R); experiment: in vivo; settings: for Emax: standard error in brackets
Protocol: Two models with Hill coefficient n fixed to 1 or optimized as a third parameter were investigated and characterized by the Akaike information criterion (AIC). Nonlinear parameter estimation was performed with Mathematica12 (Wolfram Research).

[7] = test system: sigma-1 receptor (S1R) compared with dopamine D3 receptor (D3R); settings: in vitro and in vivo animal studies; cited from earlier work
D2/D3R = settings: behaviorally effective doses, [^11C] Raclopride PET; cited from earlier work
[8] = test system: sigma-1 receptor (S1R) compared with D2R; settings: in vitro and in vivo animal studies; cited from earlier work
[9] = model plasma concentration Cavg2-4h (ng/ml), three-parameter Hill equation
[10] = model plasma concentration Cavg2-4h (ng/ml), two-parameter Hill equation (n = 1)
[11] = model weight adjusted dose (mg/kg), three-parameter Hill equation
[12] = model weight adjusted dose (mg/kg), two-parameter Hill equation (n = 1)

concentration of metabolite in plasma relative to unchanged pridopidine concentration [1]: less than 10%
Compound: CS(=O)(=O)c1cccc(C2CCNCC2)c1 [TV45065]

Compound: FCC[C@@H]1OC2(CCN(Cc3ccccc3)CC2)c2ccccc21 [[^18F] fluspidine, (S)-(-)-[^18F] Fluspidine]
mean VT at baseline PET (sigma-1 receptor (S1R) [2]; HD (n = 3), cerebellum): 23.52 ± 12.66 | mean VT at baseline PET (sigma-1 receptor (S1R) [2]; HD (n = 3), corpus callosum): 8.89 ± 2.75 | mean VT at baseline PET (sigma-1 receptor (S1R) [2]; HD (n = 3), frontal cortex): 16.32 ± 6.76 | mean VT at baseline PET (sigma-1 receptor (S1R) [2]; HD (n = 3), medulla): 14.75 ± 7.28 | mean VT at baseline PET (sigma-1 receptor (S1R) [2]; HD (n = 3), midbrain): 16.46 ± 7.73 | mean VT at baseline PET (sigma-1 receptor (S1R) [2]; HD (n = 3), pons): 16.10 ± 8.74 | mean VT at baseline PET (sigma-1 receptor (S1R) [2]; HD (n = 3), striatum): 13.59 ± 5.98 | mean VT at baseline PET (sigma-1 receptor (S1R) [2]; HVs (n = 11), cerebellum, mean ± SD): 26.91 ± 4.49 | mean VT at baseline PET (sigma-1 receptor (S1R) [2]; HVs (n = 11), corpus callosum): 11.69 ± 2.40 | mean VT at baseline PET (sigma-1 receptor (S1R) [2]; HVs (n = 11), frontal cortex): 21.38 ± 3.37 | mean VT at baseline PET (sigma-1 receptor (S1R) [2]; HVs (n = 11), medulla): 16.63 ± 2.72 | mean VT at baseline PET (sigma-1 receptor (S1R) [2]; HVs (n = 11), midbrain): 19.31 ± 2.70 | mean VT at baseline PET (sigma-1 receptor (S1R) [2]; HVs (n = 11), pons): 19.13 ± 3.45 | mean VT at baseline PET (sigma-1 receptor (S1R) [2]; HVs (n = 11), striatum): 19.43 ± 2.95 | VND, non-displaceable distribution volume (sigma-1 receptor (S1R) [2]; Lassen plot, baseline vs post-pridopidine PET, patients with Huntington disease, individual subjects): 4.26 and 3.68 and 4.42 | test-retest variability, slope of the linear regression (sigma-1 receptor (S1R) [3]): 0.887 and 1.008 | fraction unbound (plasma proteins): 0.023 ± 0.007

mean RO (S1R) (sigma-1 receptor (S1R) [4]; HD patients): 87.4% | RO (%), sigma-1 receptor occupancy (sigma-1 receptor (S1R) [4]; healthy volunteer (n = 1), single dose 0.5 mg): 17.6% | RO (%), sigma-1 receptor occupancy (sigma-1 receptor (S1R) [4]; healthy volunteer (n = 1), single dose 1 mg): 41.8% | RO (%), sigma-1 receptor occupancy (sigma-1 receptor (S1R) [4]; healthy volunteer, individual subject, single dose 45 mg): 87.2% | RO (S1R), mean (sigma-1 receptor (S1R) [4]; healthy volunteers, 5 mg pridopidine): 78.0 ± 1.7% | mean RO (S1R) (sigma-1 receptor (S1R) [4]; healthy volunteers): 91.2% | RO (%), sigma-1 receptor occupancy (sigma-1 receptor (S1R) [4]; healthy volunteers, individual subjects, single dose 5 mg): 76.8% and 79.2% | RO (%), sigma-1 receptor occupancy (sigma-1 receptor (S1R) [4]; healthy volunteers, individual subjects, single dose 22.5 mg): 84.1% and 89.2% and 86.7% | RO (%), sigma-1 receptor occupancy (sigma-1 receptor (S1R) [4]; healthy volunteers, individual subjects, single oral dose 90 mg): 88.8% and 89.1% and 95.7% | RO (%), sigma-1 receptor occupancy (sigma-1 receptor (S1R) [4]; patients with Huntington disease, individual subjects, single dose 90 mg): 80.4% and 93.2% and 88.5% | Emax (sigma-1 receptor (S1R) [6]; model dose (mg), three-parameter Hill equation, healthy volunteers): 0.90 (0.01) | Emax (sigma-1 receptor (S1R) [6]; model dose (mg), two-parameter Hill equation (n = 1), healthy volunteers): 0.93 (0.02) | EC90 (sigma-1 receptor (S1R) [6]; [9]): 0.018 µg/mL and 0.01757 µg/mL | Emax (sigma-1 receptor (S1R) [6]; [9]): 0.89 (0.02) | EC90 (sigma-1 receptor (S1R) [6]; [10]): 0.028 µg/mL and 0.02852 µg/mL | Emax (sigma-1 receptor (S1R) [6]; [10]): 0.91 (0.02) | EC90 (sigma-1 receptor (S1R) [6]; [11]): 0.084 mg/kg | Emax (sigma-1 receptor (S1R) [6]; [11]): 0.89 (0.02) | EC90 (sigma-1 receptor (S1R) [6]; [12]): 0.135 mg/kg | Emax (sigma-1 receptor (S1R) [6]; [12]): 0.93 (0.02) | Hill coefficient (sigma-1 receptor (S1R) [6]; three-parameter model, all situations (concentration, dose, adjusted weight dose)): > 1
Compound: CCCN1CCC(c2cccc(S(C)(=O)=O)c2)CC1 [pridopidine]
decline from baseline in total functional capacity (TFC) compared with placebo [5]: significantly less decline from baseline | S1R occupancy in rat brains (S1R): high S1R occupancy | fold higher affinity towards S1R compared with D3R [7]: ~ 30 fold | D2/D3R occupancy in rat brains (D2/D3R): low D2/D3R occupancy | fold higher affinity towards S1R compared with D2R [8]: ~ 100 fold
